Experimental data reported in patent publication US12097192B2 (Corcept Therapeutics Incorporated, priority 2019, dated 2024).

Experiments:
[1] = Relacorilant in healthy subjects (human volunteers): tolerability and steady state; assay type: in vivo
[2] = test system: Cushing's syndrome patients; assay: Cushing's syndrome patient study: glucose control / hyperglycemia response; assay type: in vivo, human; conditions: for Fructosamine, IGT mean change from Baseline to Last Observed / HOMA-IR, IGT mean change from Baseline to Last Observed / AUCglucose mean change from Baseline to Last Observed / AUCinsulin mean change from Baseline to Last Observed: All Subjects
Text: (§1) All patients gave informed consent before participating in any study-related procedures. […] The study protocol called for patient visits to the study site at screening, on Day 1 (baseline), Weeks 2, 4, 6, 8, 10, and 12, and after a 4-week follow-up period for Group 1. For Group 2, the protocol called for patient visits to the study site at screening, on Day 1 (baseline), Weeks 2, 4, 6, 8, 10, 12, 14, and 16, and after a 4-week follow-up period. Patient dosing will be done at home, except on days of study visits. Response criteria for hyperglycemia were changes from baseline in glucose tolerance as measured by: ≥0.5% decrease in HbA1c, normalization or ≥50 mg/dL decrease in 2-hr OGTT glucose, or decrease in total daily insulin (≥25%) or sulfonylurea dose (≥50%). Response criteria for hypertension (HTN) was a ≥5 mm Hg decrease in mean systolic and/or diastolic blood pressure (SBP/DBP). […] It ignores noncompliance, protocol deviations, withdrawal, and anything that happens after randomization. In contrast, per-protocol (PP) analysis refers to inclusion in the analysis of only those patients who strictly adhered to the protocol. The PP analysis provides an estimate of the true efficacy of an intervention, i.e., among those who completed the treatment as planned.

[3] = test system: other nuclear steroid hormone receptors; assay: Binding to other nuclear steroid hormone receptors
[4] = test system: Cushing's syndrome patients; assay: Cushing's syndrome patient study: hypertension response (24-hour ambulatory blood pressure); assay type: in vivo, human
Protocol: All patients gave informed consent before participating in any study-related procedures.
Response criteria for hyperglycemia were changes from baseline in glucose tolerance as measured by: ≥0.5% decrease in HbA1c, normalization or ≥50 mg/dL decrease in 2-hr OGTT glucose, or decrease in total daily insulin (≥25%) or sulfonylurea dose (≥50%). Response criteria for hypertension (HTN) was a ≥5 mm Hg decrease in mean systolic and/or diastolic blood pressure (SBP/DBP).
Response was based on ≥0.5% reduction of HbA1c associated with reduction or discontinuation of diabetes medications or clinically significant reduction (≥50 mg/dL decrease) or normalisation of the 2-hour glucose measurement from an oral glucose tolerance test (OGTT).

[5] = test system: Cushing's syndrome patients; assay: Cushing's syndrome patient study: absolute eosinophils and lymphocytes; assay type: in vivo, human; conditions: All Subjects, mITT
Text: as §1, with “[…] The safety protocol also included assessments by physical examination findings, vital signs, ECG results, pregnancy tests, clinical laboratory test results (hematology and chemistry panels), adverse events (AEs), and concomitant medications.” for “Response criteria for hyperglycemia were changes from baseline in glucose tolerance as measured by: ≥0.5% decrease in HbA1c, normalization or ≥50 mg/dL decrease in 2-hr OGTT glucose, or decrease in total daily insulin (≥25%) or sulfonylurea dose (≥50%). Response criteria for hypertension (HTN) was a ≥5 mm Hg decrease in mean systolic and/or diastolic blood pressure (SBP/DBP).”

[6] = test system: Cushing's syndrome patients; assay: Cushing's syndrome patient study: ECG; assay type: in vivo, human; conditions: All Subjects
Text: as §1, with “[…] The safety protocol also included assessments by physical examination findings, vital signs, ECG results, pregnancy tests, clinical laboratory test results (hematology and chemistry panels), adverse events (AEs), and concomitant medications.” for “Response criteria for hyperglycemia were changes from baseline in glucose tolerance as measured by: ≥0.5% decrease in HbA1c, normalization or ≥50 mg/dL decrease in 2-hr OGTT glucose, or decrease in total daily insulin (≥25%) or sulfonylurea dose (≥50%). Response criteria for hypertension (HTN) was a ≥5 mm Hg decrease in mean systolic and/or diastolic blood pressure (SBP/DBP).”

[7] = mITT, Group 1 (100-200 mg/day, 12 weeks)
[8] = mITT, Group 2 (250-400 mg/day, 16 weeks)
[9] = mPP, Group 1 (100-200 mg/day, 12 weeks)
[10] = mPP, Group 2 (250-400 mg/day, 16 weeks)
[11] = Group 1 (100-200 mg/day, 12 weeks)
[12] = Group 2 (250-400 mg/day, 16 weeks)
[13] = Safety population, Group 1 (100-200 mg/day, 12 weeks)
[14] = Safety population, Group 2 (250-400 mg/day, 16 weeks)

Cn1cc(S(=O)(=O)N2CCC3=Cc4c(cnn4-c4ccc(F)cc4)C[C@]3(C(=O)c3cc(C(F)(F)F)ccn3)C2)cn1 [relacorilant, (R)-(1-(4-fluorophenyl)-6-((1-methyl-1H-pyrazol-4-yl)sulfonyl)-4,4a,5,6,7,8-hexahydro-1H-pyrazolo[3,4-g]isoquinolin-4a-yl) (4-(trifluoromethyl)pyridin-2-yl)methanone]
tolerability of 14 days of dosing ([1]; human subjects, 14 days at 50 mg, 150 mg and 250 mg): well-tolerated
achievement of steady state levels ([1]; human volunteers, daily dosing): ≤ 7 days
tolerability of single doses ([1]; human, in vivo): well-tolerated
platelet count ([1]; some healthy subjects, non-dose-dependent, resolved by study end): transient reduction in platelet count
adverse events at 500 mg ([1]; some subjects who received 500-mg relacorilant): (non-serious) musculoskeletal adverse events
adverse events with repeat doses ([1]; some subjects, repeat doses up to 250 mg): mild to moderate musculoskeletal AEs
Fructosamine, IGT mean change from Baseline to Last Observed [2, 7]: -6.85 µmol/L
HOMA-IR, IGT mean change from Baseline to Last Observed [2, 7]: 0.05
Fructosamine, IGT mean change from Baseline to Last Observed [2, 8]: -21.58 µmol/L
HOMA-IR, IGT mean change from Baseline to Last Observed [2, 8]: −3.2
Fructosamine, IGT mean change from Baseline to Last Observed ([2]; mITT, Overall): -13.92 µmol/L
HOMA-IR, IGT mean change from Baseline to Last Observed ([2]; mITT, Overall): −1.58
Fructosamine, IGT mean change from Baseline to Last Observed [2, 9]: -8.08 µmol/L
HOMA-IR, IGT mean change from Baseline to Last Observed [2, 9]: 0.39
Fructosamine, IGT mean change from Baseline to Last Observed [2, 10]: -18.92 µmol/L
HOMA-IR, IGT mean change from Baseline to Last Observed [2, 10]: −3.28
Fructosamine, IGT mean change from Baseline to Last Observed ([2]; mPP, Overall): -13.28 µmol/L
HOMA-IR, IGT mean change from Baseline to Last Observed ([2]; mPP, Overall): −1.37
AUCglucose mean change from Baseline to Last Observed [2, 7]: -3.11 mmol·h/L
AUCinsulin mean change from Baseline to Last Observed [2, 7]: −33.28 hr * μU/mL
AUCglucose mean change from Baseline to Last Observed [2, 8]: -0.8 mmol·h/L
AUCinsulin mean change from Baseline to Last Observed [2, 8]: −32.26 hr * μU/mL
AUCglucose mean change from Baseline to Last Observed ([2]; mITT, Overall): -1.96 mmol·h/L
AUCinsulin mean change from Baseline to Last Observed ([2]; mITT, Overall): −32.77 hr * μU/mL
AUCglucose mean change from Baseline to Last Observed [2, 9]: -3.63 mmol·h/L
AUCinsulin mean change from Baseline to Last Observed [2, 9]: −38.79 hr * μU/mL
AUCglucose mean change from Baseline to Last Observed [2, 10]: -1.24 mmol·h/L
AUCinsulin mean change from Baseline to Last Observed [2, 10]: −37.39 hr * μU/mL
AUCglucose mean change from Baseline to Last Observed ([2]; mPP, Overall): -2.48 mmol·h/L
AUCinsulin mean change from Baseline to Last Observed ([2]; mPP, Overall): −38.12 hr * μU/mL
AUCglucose in patients with hyperglycemia ([2]; Cushing's syndrome patients): statistically significant reduction
hyperglycemia response rate ([2]; HD group (doses up to 400 mg), week 16): 50%
hyperglycemia response rate ([2]; LD group (doses up to 200 mg), week 12): 15.4%
patients with hyperglycaemia showing glycaemic improvement (responders/patients) ([2]; doses up to 400 mg): 6/12
binding to other nuclear steroid hormone receptors [3]: does not bind
hypertension response rate (≥5 mmHg reduction) ([4]; HD group (doses up to 400 mg daily), week 16): 63.6%
hypertension response rate (≥5 mmHg reduction) ([4]; LD group (doses up to 200 mg daily), week 12): 41.7%
nocturnal and daytime blood pressures ([4]; hypertension responders): clinically significant improvement
Absolute Eosinophils mean change from Baseline to Last Observed [5, 11]: 0.05 10^{super 9
Absolute Lymphocytes mean change from Baseline to Last Observed [5, 11]: −0.15 10^{super 9
Absolute Eosinophils mean change from Baseline to Last Observed [5, 12]: 0.05 10^{super 9
Absolute Lymphocytes mean change from Baseline to Last Observed [5, 12]: 0.26 10^{super 9
Absolute Eosinophils mean change from Baseline to Last Observed ([5]; Overall): 0.05 10^{super 9
Absolute Lymphocytes mean change from Baseline to Last Observed ([5]; Overall): 0.05 10^{super 9
ECG Median Heart Rate mean change from Baseline to Last Observed [6, 13]: 8 beats/min
PR Interval, Aggregate mean change from Baseline to Last Observed [6, 13]: 2.72 ms
QRS Duration, Aggregate mean change from Baseline to Last Observed [6, 13]: -0.79 ms
QT Interval, Aggregate mean change from Baseline to Last Observed [6, 13]: -15.85 ms
QTcB Interval, Aggregate mean change from Baseline to Last Observed [6, 13]: 5.58 ms
QTcF Interval, Aggregate mean change from Baseline to Last Observed [6, 13]: -1.98 ms
RR Interval, Aggregate mean change from Baseline to Last Observed [6, 13]: -93.14 ms
ECG Median Heart Rate mean change from Baseline to Last Observed [6, 14]: 5.23 beats/min
PR Interval, Aggregate mean change from Baseline to Last Observed [6, 14]: -4.2 ms
QRS Duration, Aggregate mean change from Baseline to Last Observed [6, 14]: -0.77 ms
QT Interval, Aggregate mean change from Baseline to Last Observed [6, 14]: -11.04 ms
QTcB Interval, Aggregate mean change from Baseline to Last Observed [6, 14]: 2.28 ms
QTcF Interval, Aggregate mean change from Baseline to Last Observed [6, 14]: -2.54 ms
RR Interval, Aggregate mean change from Baseline to Last Observed [6, 14]: -56.67 ms
ECG Median Heart Rate mean change from Baseline to Last Observed ([6]; Safety population, Overall): 6.7 beats/min
PR Interval, Aggregate mean change from Baseline to Last Observed ([6]; Safety population, Overall): -0.4 ms
QRS Duration, Aggregate mean change from Baseline to Last Observed ([6]; Safety population, Overall): -0.78 ms
QT Interval, Aggregate mean change from Baseline to Last Observed ([6]; Safety population, Overall): -13.6 ms
QTcB Interval, Aggregate mean change from Baseline to Last Observed ([6]; Safety population, Overall): 4.03 ms
QTcF Interval, Aggregate mean change from Baseline to Last Observed ([6]; Safety population, Overall): -2.24 ms
RR Interval, Aggregate mean change from Baseline to Last Observed ([6]; Safety population, Overall): -76.04 ms
ECG Median Heart Rate mean change from Baseline to Last Observed [6, 7]: 8 beats/min
PR Interval, Aggregate mean change from Baseline to Last Observed [6, 7]: 2.72 ms
QRS Duration, Aggregate mean change from Baseline to Last Observed [6, 7]: -0.79 ms
QT Interval, Aggregate mean change from Baseline to Last Observed [6, 7]: -15.85 ms
QTcB Interval, Aggregate mean change from Baseline to Last Observed [6, 7]: 5.58 ms
QTcF Interval, Aggregate mean change from Baseline to Last Observed [6, 7]: -1.98 ms
RR Interval, Aggregate mean change from Baseline to Last Observed [6, 7]: -93.14 ms
ECG Median Heart Rate mean change from Baseline to Last Observed [6, 8]: 5.23 beats/min
PR Interval, Aggregate mean change from Baseline to Last Observed [6, 8]: -4.2 ms
QRS Duration, Aggregate mean change from Baseline to Last Observed [6, 8]: -0.77 ms
QT Interval, Aggregate mean change from Baseline to Last Observed [6, 8]: -11.04 ms
QTcB Interval, Aggregate mean change from Baseline to Last Observed [6, 8]: 2.28 ms
QTcF Interval, Aggregate mean change from Baseline to Last Observed [6, 8]: -2.54 ms
RR Interval, Aggregate mean change from Baseline to Last Observed [6, 8]: -56.67 ms
ECG Median Heart Rate mean change from Baseline to Last Observed ([6]; mITT, Overall): 6.7 beats/min
PR Interval, Aggregate mean change from Baseline to Last Observed ([6]; mITT, Overall): -0.4 ms
QRS Duration, Aggregate mean change from Baseline to Last Observed ([6]; mITT, Overall): -0.78 ms
QT Interval, Aggregate mean change from Baseline to Last Observed ([6]; mITT, Overall): -13.6 ms
QTcB Interval, Aggregate mean change from Baseline to Last Observed ([6]; mITT, Overall): 4.03 ms
QTcF Interval, Aggregate mean change from Baseline to Last Observed ([6]; mITT, Overall): -2.24 ms
RR Interval, Aggregate mean change from Baseline to Last Observed ([6]; mITT, Overall): -76.04 ms
